Experimental data taken from patent US5698411A, “Method for determining activity of enzymes in metabolically active whole cells” (priority 1995, dated 1997).

Legend:
Type in all cases: cell-based, human
lymphocytes [1] = experiment: peptidase activity in leukemia and non-leukemia patients, lymphocytes (Table 6C); set-up: unit not given here
Text: (§1) Artificial intelligence was used to analyze data of cellular enzyme functions, and determine normal and disease states. Peptidases were used to distinguish leukemia from non-leukemia (output pattern). For input patterns lymphocyte and granulocyte cell types were used with aminopeptidases, cathepsins and dipeptidylpeptidase enzyme activities. In this Example, illustrated in Tables 6A-6C, three normals and three leukemia patients were used as known output patterns for the neural network to learn (in practice, the larger the learning set the more accurate unknown prediction will be). Unknowns were then presented to the learned algorithm as shown in the test case examples. Clinical diagnosis was confirmed by physicians. The trained neural network was able to correctly classify the leukemia from the non-leukemia.

granulocytes [2] = experiment: peptidase activity in leukemia and non-leukemia patients, granulocytes (Table 6C); set-up: unit not given here
Text: as §1

lymphocytes [3] = experiment: aberrant enzyme activities in febrile children, lymphocytes (Table 7)
granulocytes [4] = experiment: aberrant enzyme activities in febrile children, granulocytes (Table 7)
monocytes = experiment: aberrant enzyme activities in febrile children, monocytes (Table 7)

NCC(=O)N1CCC[C@H]1C(=O)Nc1ccc2c(c1)Oc1cc(NC(=O)[C@@H]3CCCN3C(=O)CN)ccc1C21OC(=O)c2ccccc21 [GP, (H-Gly--Pro)2 Rho .2TFA]
enzyme activity, Lymphs (lymphocytes [1]; J4 11/21/91 acute leuk.): 2.72
enzyme activity, Lymphs (lymphocytes [1]; J4 12/2/91 A L): 3.80
enzyme activity, Lymphs (lymphocytes [1]; J4 12/3/91 acute leuk.): 4.17
enzyme activity, Lymphs (lymphocytes [1]; J5 11/27/91 A M L): 3.40
enzyme activity, Lymphs (lymphocytes [1]; J19 11/27/91 C L L): 1.73
enzyme activity, Lymphs (lymphocytes [1]; J22 12/2/91 A M L): 1.73
enzyme activity, Lymphs (lymphocytes [1]; J22 12/9/91 A M L): 3.01
enzyme activity, Lymphs (lymphocytes [1]; N191 normal): 4.14
enzyme activity, Lymphs (lymphocytes [1]; N192 normal): 3.00
enzyme activity, Lymphs (lymphocytes [1]; N193 normal): 3.00
enzyme activity, Lymphs (lymphocytes [1]; N194 normal): 5.22
enzyme activity, Lymphs (lymphocytes [1]; N195 normal): 5.24
enzyme activity, Lymphs (lymphocytes [1]; N197 normal): 5.97
enzyme activity, Lymphs (lymphocytes [1]; N199 normal): 5.55
enzyme activity, Lymphs (lymphocytes [1]; N200 normal): 5.38
enzyme activity, Lymphs (lymphocytes [1]; N201 normal): 6.53
enzyme activity, Lymphs (lymphocytes [1]; N202 normal): 6.61
enzyme activity, Lymphs (lymphocytes [1]; N206 normal): 7.09
enzyme activity, Lymphs (lymphocytes [1]; P68 tachycardia): 5.92
enzyme activity, Lymphs (lymphocytes [1]; P69 pancreatic CA): 6.80
enzyme activity, Lymphs (lymphocytes [1]; P70 cirrhosis/hemobilia): 6.68
enzyme activity, Lymphs (lymphocytes [1]; P71 ac. pyelonephritis): 3.55
enzyme activity, Grans (granulocytes [2]; J4 11/21/91 acute leuk.): 10.75
enzyme activity, Grans (granulocytes [2]; J4 12/2/91 A L): 11.08
enzyme activity, Grans (granulocytes [2]; J4 12/3/91 acute leuk.): 1.28
enzyme activity, Grans (granulocytes [2]; J5 11/27/91 A M L): 8.95
enzyme activity, Grans (granulocytes [2]; J19 11/27/91 C L L): 1.39
enzyme activity, Grans (granulocytes [2]; J22 12/2/91 A M L): 13.98
enzyme activity, Grans (granulocytes [2]; J22 12/9/91 A M L): 11.52
enzyme activity, Grans (granulocytes [2]; N191 normal): 11.20
enzyme activity, Grans (granulocytes [2]; N192 normal): 11.22
enzyme activity, Grans (granulocytes [2]; N193 normal): 8.87
enzyme activity, Grans (granulocytes [2]; N194 normal): 12.49
enzyme activity, Grans (granulocytes [2]; N195 normal): 13.31
enzyme activity, Grans (granulocytes [2]; N197 normal): 15.85
enzyme activity, Grans (granulocytes [2]; N199 normal): 13.41
enzyme activity, Grans (granulocytes [2]; N200 normal): 12.74
enzyme activity, Grans (granulocytes [2]; N201 normal): 15.92
enzyme activity, Grans (granulocytes [2]; N202 normal): 14.44
enzyme activity, Grans (granulocytes [2]; N206 normal): 17.96
enzyme activity, Grans (granulocytes [2]; P68 tachycardia): 16.08
enzyme activity, Grans (granulocytes [2]; P69 pancreatic CA): 16.21
enzyme activity, Grans (granulocytes [2]; P70 cirrhosis/hemobilia): 16.42
enzyme activity, Grans (granulocytes [2]; P71 ac. pyelonephritis): 11.07

C[C@@H](O)[C@H](N)C(=O)N1CCC[C@H]1C(=O)Nc1ccc2c(c1)Oc1cc(NC(=O)[C@@H]3CCCN3C(=O)[C@@H](N)[C@@H](C)O)ccc1C21OC(=O)c2ccccc21 [TP, (H-L-Thr--Pro)2 Rho 110 .2TFA]
enzyme activity, Lymphs (lymphocytes [1]; J4 11/21/91 acute leuk.): 2.30
enzyme activity, Lymphs (lymphocytes [1]; J4 12/2/91 A L): 1.46
enzyme activity, Lymphs (lymphocytes [1]; J4 12/3/91 acute leuk.): 1.18
enzyme activity, Lymphs (lymphocytes [1]; J5 11/27/91 A M L): 1.32
enzyme activity, Lymphs (lymphocytes [1]; J19 11/27/91 C L L): 0.50
enzyme activity, Lymphs (lymphocytes [1]; J22 12/2/91 A M L): 0.99
enzyme activity, Lymphs (lymphocytes [1]; J22 12/9/91 A M L): 1.02
enzyme activity, Lymphs (lymphocytes [1]; N191 normal): 2.14
enzyme activity, Lymphs (lymphocytes [1]; N192 normal): 2.12
enzyme activity, Lymphs (lymphocytes [1]; N193 normal): 2.33
enzyme activity, Lymphs (lymphocytes [1]; N194 normal): 1.82
enzyme activity, Lymphs (lymphocytes [1]; N195 normal): 1.90
enzyme activity, Lymphs (lymphocytes [1]; N197 normal): 1.96
enzyme activity, Lymphs (lymphocytes [1]; N199 normal): 1.86
enzyme activity, Lymphs (lymphocytes [1]; N200 normal): 2.39
enzyme activity, Lymphs (lymphocytes [1]; N201 normal): 1.88
enzyme activity, Lymphs (lymphocytes [1]; N202 normal): 2.49
enzyme activity, Lymphs (lymphocytes [1]; N206 normal): 2.89
enzyme activity, Lymphs (lymphocytes [1]; P68 tachycardia): 1.90
enzyme activity, Lymphs (lymphocytes [1]; P69 pancreatic CA): 2.26
enzyme activity, Lymphs (lymphocytes [1]; P70 cirrhosis/hemobilia): 1.89
enzyme activity, Lymphs (lymphocytes [1]; P71 ac. pyelonephritis): 1.86
enzyme activity, Grans (granulocytes [2]; J4 11/21/91 acute leuk.): 5.96
enzyme activity, Grans (granulocytes [2]; J4 12/2/91 A L): 2.59
enzyme activity, Grans (granulocytes [2]; J4 12/3/91 acute leuk.): 1.93
enzyme activity, Grans (granulocytes [2]; J5 11/27/91 A M L): 2.72
enzyme activity, Grans (granulocytes [2]; J19 11/27/91 C L L): 2.95
enzyme activity, Grans (granulocytes [2]; J22 12/2/91 A M L): 2.33
enzyme activity, Grans (granulocytes [2]; J22 12/9/91 A M L): 2.51
enzyme activity, Grans (granulocytes [2]; N191 normal): 4.73
enzyme activity, Grans (granulocytes [2]; N192 normal): 4.62
enzyme activity, Grans (granulocytes [2]; N193 normal): 4.96
enzyme activity, Grans (granulocytes [2]; N194 normal): 3.77
enzyme activity, Grans (granulocytes [2]; N195 normal): 3.74
enzyme activity, Grans (granulocytes [2]; N197 normal): 3.82
enzyme activity, Grans (granulocytes [2]; N199 normal): 3.71
enzyme activity, Grans (granulocytes [2]; N200 normal): 4.69
enzyme activity, Grans (granulocytes [2]; N201 normal): 4.23
enzyme activity, Grans (granulocytes [2]; N202 normal): 4.44
enzyme activity, Grans (granulocytes [2]; N206 normal): 5.98
enzyme activity, Grans (granulocytes [2]; P68 tachycardia): 5.63
enzyme activity, Grans (granulocytes [2]; P69 pancreatic CA): 4.21
enzyme activity, Grans (granulocytes [2]; P70 cirrhosis/hemobilia): 4.02
enzyme activity, Grans (granulocytes [2]; P71 ac. pyelonephritis): 4.37

C[C@H](NC(=O)OCc1ccccc1)C(=O)NCC(=O)Nc1ccc2c(c1)Oc1cc(NC(=O)CNC(=O)[C@H](C)NC(=O)OCc3ccccc3)ccc1C21OC(=O)c2ccccc21 [Z-AG, (Z-Ala--Gly)2 Rho 110]
aberrant enzyme activity, LYMPHS (lymphocytes [3]; P99 Viral Syndrome): .smallcircle.
aberrant enzyme activity, LYMPHS (lymphocytes [3]; P102 UTI): .smallcircle.
aberrant enzyme activity, LYMPHS (lymphocytes [3]; P103 Viral Syndrome): .smallcircle.
aberrant enzyme activity, GRANS (granulocytes [4]; P89 Viral Stomatitis): .smallcircle.
aberrant enzyme activity, GRANS (granulocytes [4]; P92 Adenitis): .smallcircle.
aberrant enzyme activity, GRANS (granulocytes [4]; P95 Viral Syndrome): .smallcircle.
aberrant enzyme activity, GRANS (granulocytes [4]; P96 Viral Syndrome): .smallcircle.
aberrant enzyme activity, GRANS (granulocytes [4]; P97 Pyelonephritis): .smallcircle.
aberrant enzyme activity, GRANS (granulocytes [4]; P99 Viral Syndrome): .smallcircle.
aberrant enzyme activity, GRANS (granulocytes [4]; P102 UTI): .smallcircle.
aberrant enzyme activity, GRANS (granulocytes [4]; P103 Viral Syndrome): .smallcircle.
aberrant enzyme activity, MONOS (monocytes; P89 Viral Stomatitis): .smallcircle.
aberrant enzyme activity, MONOS (monocytes; P95 Viral Syndrome): .smallcircle.
aberrant enzyme activity, MONOS (monocytes; P96 Viral Syndrome): .smallcircle.
aberrant enzyme activity, MONOS (monocytes; P97 Pyelonephritis): .smallcircle.
aberrant enzyme activity, MONOS (monocytes; P99 Viral Syndrome): .smallcircle.
aberrant enzyme activity, MONOS (monocytes; P102 UTI): .smallcircle.
aberrant enzyme activity, MONOS (monocytes; P103 Viral Syndrome): .smallcircle.
